biological target: T1, GST-hLGK1 (human liver type GK) (Homo sapiens, UniProt P35557); assay: Measurement of GK activation value (Mant-ATP/Mant-ADP capillary electrophoresis); type: biochemical; conditions: test compound 10 μmol/L; 5 mmol/L D-glucose; reaction rate as percentage of control group without test compound
T1 construct: made in house; host or cells: Escherichia coli BL21 (Stratagene), plasmid pGEX6P-2/hLGK1
T1 sequence (P35557 1-464 isoform P35557-3): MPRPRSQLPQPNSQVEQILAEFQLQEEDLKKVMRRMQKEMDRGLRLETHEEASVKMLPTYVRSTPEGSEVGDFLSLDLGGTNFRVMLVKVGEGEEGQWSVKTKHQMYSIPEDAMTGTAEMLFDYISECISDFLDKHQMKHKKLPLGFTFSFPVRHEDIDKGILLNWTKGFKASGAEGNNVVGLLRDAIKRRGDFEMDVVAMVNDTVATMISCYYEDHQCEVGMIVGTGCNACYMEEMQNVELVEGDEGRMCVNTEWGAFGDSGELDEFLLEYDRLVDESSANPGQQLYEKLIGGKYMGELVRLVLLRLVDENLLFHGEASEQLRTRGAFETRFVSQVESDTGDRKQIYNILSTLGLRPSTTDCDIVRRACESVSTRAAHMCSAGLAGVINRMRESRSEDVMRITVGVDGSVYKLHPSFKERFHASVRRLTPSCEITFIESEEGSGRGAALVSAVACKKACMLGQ
Protocol: A plasmid DNA used for expression of a protein (GST-hLGK1) having GST (Glutathione S-transferase) added to the amino terminal of human liver type GK in Escherichia coli was prepared as follows.
BL21 strain (Stratagene) transformed with pGEX6P-2/hLGK1 obtained in Reference Example 1A was cultured with shaking in a 200 ml Erlenmeyer flask containing LB medium (50 ml) containing 100 μg/ml ampicillin at 37° C. for 14 hr. The cultured broth (25 ml) was diluted with LB medium (225 ml) containing 100 μg/ml ampicillin, and cultured with shaking in a 1 L Erlenmeyer flask at 37° C. for 1 hr. The Erlenmeyer flask after culture was cooled on ice, 100 mM Isopropyl-Thio-β-D-Galactopyranoside (IPTG) (125 μL) was added (final concentration 50 μM), and the cells were cultured at 17° C. for 20 hr. The cultures broth was centrifuged, and the obtained cells were disrupted by ultrasonication, and the object protein (GST-hLGK1) was purified from the supernatant using Glutathione Sepharose 4B (Amersham Biosciences).
GK enzyme reactions were performed in 50 mmol/L HEPES pH7.4, 200 mmol/L KCl, 5 mmol/L MgCl2, 2 mmol/L DTT, containing 50 μmol/L 2′-(or-3′)-O—(N-methylanthraniloyl)adenosine 5′-triphosphate (Mant-ATP) (Jena Bioscience GmbH), 5 mmol/L D-glucose, 5% DMSO and 6 μg/mL GST-hLGK1 obtained in Reference Example 2A in a total volume 50 μL. The reactions were performed in 384 well black plates (Nalge Nunc International K.K.). Prior to the reaction, the enzyme and test compound were incubated for 10 min at 37° C., and 25 mM D-glucose solution (10 μL) was added to start the reaction. The final concentration of the test compound is 10 μmol/L. After the incubation for 60 min at 37° C., the reaction was quenched by adding 25 μL of a quenching solution (containing 200 mM HEPES (pH 7.4), 20 mM MgCl2, 200 mM EDTA, 0.03% Triton-X 100, 0.3% Coating 3 reagent (Caliper Life Sciences, Inc.)).
Mant-ATP (substrate, 2′-(or-3′)-O—(N-methylanthraniloyl)adenosine 5′-triphosphate) and Mant-ADP (reaction resultant product) were separated from each well after the reaction by a microchip type capillary electrophoresis apparatus 250 HTS (Caliper Life Sciences, Inc.). The reaction rate [(reaction resultant product peak height)/(reaction resultant product peak height+substrate peak height)×100(%)] was calculated from the ratio of the substrate peak height and reaction resultant product peak height obtained by fluorescence detection (excitation wavelength 355 nm, measurement wavelength 460 nm) and used as the index of GK activity.
As a control group, the reaction rate was calculated in the same manner as above without the test compounds. […]

Emax at 10 µM	SMILES
161%	CC(C)(O)C(O)c1ccc(-c2ccc(C(CC3CCOCC3)n3ncc4c(S(=O)(=O)C5CC5)cccc43)[nH]2)nc1 (stereo not shown) [Example 4, 1-[6-(5-{1-[4-(cyclopropylsulfonyl)-1H-indazol-1-yl]-2-(tetrahydro-2H-pyran-4-yl)ethyl}-1H-pyrrol-2-yl)pyridin-3-yl]-2-methylpropane-1,2-diol]
138%	Cn1nc(C(CC2CCOCC2)c2ccc(-c3ncc(CO)s3)[nH]2)cc1S(C)(=O)=O (stereo not shown) [Example 2, [2-(5-{1-[1-methyl-5-(methylsulfonyl)-1H-pyrazol-3-yl]-2-(tetrahydro-2H-pyran-4-yl)ethyl}-1H-pyrrol-2-yl)-1,3-thiazol-5-yl]methanol]
162%	COc1ccc2c(cnn2C(CC2CCOCC2)c2ccc(-c3ccc(C(O)C(C)(C)O)cn3)[nH]2)c1S(=O)(=O)C1CC1 (stereo not shown) [Example 5, 1-[6-(5-{1-[4-(cyclopropylsulfonyl)-5-methoxy-1H-indazol-1-yl]-2-(tetrahydro-2H-pyran-4-yl)ethyl}-1H-pyrrol-2-yl)pyridin-3-yl]-2-methylpropane-1,2-diol]
124%	COc1ccnc2c1cnn2C(CC1CCOCC1)c1ccc(-c2ccc(C(O)C(C)(C)O)cn2)[nH]1 (stereo not shown) [Example 3, 1-(6-{5-[1-(4-methoxy-1H-pyrazolo[3,4-b]pyridin-1-yl)-2-(tetrahydro-2H-pyran-4-yl)ethyl]-1H-pyrrol-2-yl}pyridin-3-yl)-2-methylpropane-1,2-diol]

Source: patent US8349886B2, “Nitrogenated 5-membered heterocyclic compound” (Takeda Pharmaceutical Company Limited, priority 2008, dated 2013)
